In US10770169B2, “Method of providing a treatment to a subject based on a dynamic pathway map” (THE REGENTS OF THE UNIVERSITY OF CALIFORNIA, priority 2010, dated 2020):
Like-named read-outs stand apart in the source and are kept apart here.

Tests used:
[1] = test system: breast cancer cell lines with aberrant vs normal copy number; test: Association of recurrent copy number changes and response (t-test on GI50); format: cell-based, human; conditions: FDR p<0.2
From the text: We used a t-test to assess the association between recurrent copy number changes (at 8q24 (MYC), 11q13 (CCND1), 20q13 (STK15/AURKA)) and drug sensitivity. We combined into a single group cell lines with low or no amplification and compared them to cell lines with high amplification. […] Cell lines for which the GI50 was equal to the maximum concentration tested were omitted from analysis. We omitted compounds where any group had fewer than five samples.

[2] = test system: panel of 55 breast cancer cell lines; test: Cell growth inhibition assay (Cell Titer Glo, 72 h, 9 doses; GI50, TGI, LC50); format: cell-based, human; conditions: Homo sapiens, read-out: GI50 (converted)

CCC1=C[C@@H]2CN(C1)Cc1c([nH]c3ccccc13)[C@@](C(=O)OC)(c1cc3c(cc1OC)N(C)[C@H]1[C@@](O)(C(=O)OC)[C@H](OC(C)=O)[C@]4(CC)C=CCN5CC[C@]31[C@@H]54)C2 [Vinorelbine]
association of response with homozygous deletion at 9p21 (CDKN2A) [1]: associated with response
GI50 ([2]; 600MPE cell line, censored GI50 values): 5130 nM
GI50 ([2]; AU565, AU565 cell line, censored GI50 values): 8.71 nM
GI50 ([2]; AU565, cell line AU565): 8.71 nM
GI50 ([2]; BT-474, BT474 cell line, censored GI50 values): 47.9 nM
GI50 ([2]; BT-474, cell line BT474): 47.9 nM
GI50 ([2]; BT-483, BT483 cell line, censored GI50 values): 7.24 nM
GI50 ([2]; BT-483, cell line BT483): 7.24 nM
GI50 ([2]; BT-549, BT549 cell line, censored GI50 values): 9.55 nM
GI50 ([2]; BT-549, cell line BT549): 9.55 nM
GI50 ([2]; CAMA-1, CAMA1 cell line, censored GI50 values): 13.2 nM
GI50 ([2]; CAMA-1, cell line CAMA1): 13.2 nM
GI50 ([2]; HCC38, HCC38 cell line, censored GI50 values): 11.5 nM
GI50 ([2]; HCC38, cell line HCC38): 11.5 nM
GI50 ([2]; HCC70, HCC70 cell line, censored GI50 values): 7.41 nM
GI50 ([2]; HCC70, cell line HCC70): 7.41 nM
GI50 ([2]; HCC202, HCC202 cell line, censored GI50 values): 13.5 nM
GI50 ([2]; HCC202, cell line HCC202): 13.5 nM
GI50 ([2]; HCC1143, HCC1143 cell line, censored GI50 values): 263 nM
GI50 ([2]; HCC1143, cell line HCC1143): 263 nM
GI50 ([2]; HCC1187, HCC1187 cell line, censored GI50 values): 26.9 nM
GI50 ([2]; HCC1187, cell line HCC1187): 26.9 nM
GI50 ([2]; HCC1395, HCC1395 cell line, censored GI50 values): 3.55 nM
GI50 ([2]; HCC1395, cell line HCC1395): 3.55 nM
GI50 ([2]; HCC1419, HCC1419 cell line, censored GI50 values): 355 nM
GI50 ([2]; HCC1419, cell line HCC1419): 355 nM
GI50 ([2]; HCC1428, HCC1428 cell line, censored GI50 values): 2190 nM
GI50 ([2]; HCC1428, cell line HCC1428): 2190 nM
GI50 ([2]; HCC1500, HCC1500 cell line, censored GI50 values): 11 nM
GI50 ([2]; HCC1500, cell line HCC1500): 11 nM
GI50 ([2]; HCC1806, HCC1806 cell line, censored GI50 values): 11.7 nM
GI50 ([2]; HCC1806, cell line HCC1806): 11.7 nM
GI50 ([2]; HCC1937, HCC1937 cell line, censored GI50 values): 224 nM
GI50 ([2]; HCC1937, cell line HCC1937): 224 nM
GI50 ([2]; HCC1954, HCC1954 cell line, censored GI50 values): 3.55 nM
GI50 ([2]; HCC1954, cell line HCC1954): 3.55 nM
GI50 ([2]; HCC2185 cell line, censored GI50 values): 26300 nM
GI50 ([2]; HCC3153 cell line, censored GI50 values): 51.3 nM
GI50 ([2]; LY2 cell line, censored GI50 values): 13.2 nM
GI50 ([2]; MCF7, MCF7 cell line, censored GI50 values): 16.6 nM
GI50 ([2]; MCF7, cell line MCF7): 16.6 nM
GI50 ([2]; MDA-MB-134-VI, MDAMB134VI cell line, censored GI50 values): 13.5 nM
GI50 ([2]; MDA-MB-157, MDAMB157 cell line, censored GI50 values): 12.9 nM
GI50 ([2]; MDA-MB-157, cell line MDAMB157): 12.9 nM
GI50 ([2]; MDA-MB-175-VII, MDAMB175VII cell line, censored GI50 values): 38.9 nM
GI50 ([2]; MDA-MB-231, MDAMB231 cell line, censored GI50 values): 5.13 nM
GI50 ([2]; MDA-MB-231, cell line MDAMB231): 5.13 nM
GI50 ([2]; MDA-MB-361, MDAMB361 cell line, censored GI50 values): 6.61 nM
GI50 ([2]; MDA-MB-361, cell line MDAMB361): 6.61 nM
GI50 ([2]; MDA-MB-415, MDAMB415 cell line, censored GI50 values): 18.2 nM
GI50 ([2]; MDA-MB-415, cell line MDAMB415): 18.2 nM
GI50 ([2]; MDA-MB-436, MDAMB436 cell line, censored GI50 values): 26.9 nM
GI50 ([2]; MDA-MB-436, cell line MDAMB436): 26.9 nM
GI50 ([2]; MDA-MB-453, MDAMB453 cell line, censored GI50 values): 3.8 nM
GI50 ([2]; MDA-MB-453, cell line MDAMB453): 3.8 nM
GI50 ([2]; MDA-MB-468, MDAMB468 cell line, censored GI50 values): 10.7 nM
GI50 ([2]; MDA-MB-468, cell line MDAMB468): 10.7 nM
GI50 ([2]; SK-BR-3, SKBR3 cell line, censored GI50 values): 17.4 nM
GI50 ([2]; SK-BR-3, cell line SKBR3): 17.4 nM
GI50 ([2]; SUM52PE, SUM52PE cell line, censored GI50 values): 5.37 nM
GI50 ([2]; SUM52PE, cell line SUM52PE): 5.37 nM
GI50 ([2]; SUM149PT, SUM149PT cell line, censored GI50 values): 12.3 nM
GI50 ([2]; SUM149PT, cell line SUM149PT): 12.3 nM
GI50 ([2]; SUM185PE, SUM185PE cell line, censored GI50 values): 8.32 nM
GI50 ([2]; SUM185PE, cell line SUM185PE): 8.32 nM
GI50 ([2]; SUM1315MO2, SUM1315MO2 cell line, censored GI50 values): 2.24 nM
GI50 ([2]; SUM-159-PT, SUM159PT cell line, censored GI50 values): 12.3 nM
GI50 ([2]; SUM-159-PT, cell line SUM159PT): 12.3 nM
GI50 ([2]; T47D, T47D cell line, censored GI50 values): 4680 nM
GI50 ([2]; T47D, cell line T47D): 4680 nM
GI50 ([2]; UACC-812, UACC812 cell line, censored GI50 values): 74.1 nM
GI50 ([2]; UACC-812, cell line UACC812): 74.1 nM
GI50 ([2]; UACC-893, UACC893 cell line, censored GI50 values): 11 nM
GI50 ([2]; UACC-893, cell line UACC893): 11 nM
GI50 ([2]; ZR-75-1, ZR751 cell line, censored GI50 values): 44.7 nM
GI50 ([2]; ZR-75-1, cell line ZR751): 44.7 nM
GI50 ([2]; ZR-75B, ZR75B cell line, censored GI50 values): 8.91 nM
GI50 ([2]; ZR-75B, cell line ZR75B): 8.91 nM
GI50 ([2]; cell line 600MPE): 5130 nM
GI50 ([2]; cell line HCC2185): 26300 nM
GI50 ([2]; cell line HCC3153): 51.3 nM
GI50 ([2]; cell line LY2): 13.2 nM
GI50 ([2]; cell line MDAMB134V): 13.5 nM
GI50 ([2]; cell line MDAMB175V): 38.9 nM
GI50 ([2]; cell line SUM1315MO): 2.24 nM
